From paper PMC11561238, “Discovery and binding mode of small molecule inhibitors of the apo form of human TDO2” (Scientific Reports, 2024)
Where “and” joins values, the source holds several entries; their conditions need not be identical. Equal values may be shown once. Entries after “also recorded” stand apart in the source; their conditions may differ. Read-outs that look alike come from different tables or passages of the source.

Assays:
IDO1 = target: T1, IDO1 (Homo sapiens, UniProt P14902); assay: IDO1 cellular activity assay (IFNγ-stimulated SKOV3 cells); format: cell-based; conditions: IFNγ 50 ng/ml, 24 h
T1 construct: SKOV3 cells treated with IFNγ to induce IDO expression; endogenous in cells; host or cells: SKOV3 cells (NCI No. 0503405), IFNγ-stimulated
Protocol: A cellular assay similar to the TDO2 assay was used to measure IDO1 inhibition in SKOV3 cells.
SKOV3 cells (source: National Cancer Institute (NCI), No. 0503405) which upregulate IDO1 after stimulation with IFNγ were used to measure compounds for IDO1 inhibitory activity. SKOV3 cells were routinely maintained in RPMI 90% (v/v), FCS 10% (v/v), Penicilin/streptomycin 1% (v/v). SKOV3 cells were seeded in 384 well plates at a density of 8000 cells in 45 µl per well or 4000 cells in 45 µl per well, respectively. Plates were incubated at 37 °C / 5% CO2 for 24 h. On the next day, 10 µl compound in serial dilutions (tested concentration range 10 µM-0.5 nM) and 200 µM L-tryptophan were added as well as IFNγ at a final concentration of 50 ng/ml. After 24 h of incubation at 37 °C / 5% CO2, 3 µl of the supernatant per well was transferred to 25 µl H2O per well in a 384 deep well plate and 25 µl of the supernatant per well was transferred to waste. The SKOV3 cell plates with 25 µl supernatant per well remaining were used to measure viability (see below). […] NFK and kynurenine (KYN) were quantified by LCMS, normalized to the internal standard L-tryptophan-(indole-d5) and the sum was calculated. […] For each compound concentration the percentage of activity compared to 0% and 100% effect was calculated as average ± STDEV (each concentration measured in duplicate). […]

holo-TDO2 = target: T2, holo-TDO2 (Homo sapiens, UniProt P48775); assay: Heme competition by holo-TDO2 UV-VIS absorbance (Soret band); format: binding; conditions: 5 µM holo-TDO2, 20 µM inhibitor, 37 °C, up to 6 h
T2 construct: a construct encoding amino acids 19–406 of human TDO2 with an N-terminal six histidine tag; His6 (N); PreScission protease cleavage site (linker) (N); made in house; host or cells: E. coli BL21(DE3)
Protocol: To explore whether the identified apo-binders could compete with heme-binding to TDO2, a UV-visible absorption spectrum of holo-TDO2 was measured in the absence or presence of compounds. […] A shifted Soret peak can indicate a heme protein-ligand interaction, and a reduced intensity indicates loss of protein bound heme (although free heme also absorbs with a peak at approximately 400 nm, it is very poorly soluble).
Fig. 2 The UV-VIS absorption spectrum of holo-TDO2 in the presence of Cpd-1 (A) or Cpd-2 (B) or the vehicle control. […] The increase of absorbance at 280 nm of holo-TDO2 in the presence of Cpd-1 or Cpd-2 compared to the vehicle control is likely due to compound absorbance at this wavelength.
A UV − visible spectra study was performed to evaluate the binding of the compounds. The holo-TDO2 absorbance spectra were measured using a BioTek Synergy multimode reader (Agilent) for wavelengths from 250 to 600 nm in 1 nm increments. 5 µM holo-TDO2 was incubated at 37 °C with 20 µM compounds or DMSO in phosphate buffer supplemented with 0.01% Tween-20 in a 96 well UV compatible plate (Corning #3679) and absorbance was measured before (t = 0 h) and after 2–6 h of incubation.

apo-TDO2 = target: T3, apo-TDO2 (Homo sapiens, UniProt P48775); assay: Differential scanning fluorimetry (thermal shift) of apo-TDO2; format: binding; conditions: for Δ Tm Boltzmann / Δ Tm Derivative: 25 µM; for Δ Tm Boltzmann / Δ Tm Derivative / Tm Boltzmann / Tm Derivative: in °C
T3 construct: a longer construct (His6-aa19-406, with aa406 corresponding to the wild type C-terminal residue), which was used for DSF and other experiments; made in house; host or cells: E. coli RP523 (hemB mutant, unable to synthesize heme)
Protocol: […] S5 online).
Protein thermal stability and small molecule ligand binding of TDO2 in vitro was studied using differential scanning fluorimetry (DSF, also known as thermal shift assay)[34]. Assay ingredients and ligands were combined to obtain a mixture composed of 10 µM TDO2 and 10x SYPRO Orange, in assay buffer (50 mM HEPES-NaOH pH 8.0, 200 mM NaCl, 2 mM TCEP, 10% glycerol) and 2% final DMSO concentration. Small molecule chemical ligands were taken from DMSO stock solution (100 mM, 10 mM) and diluted in DMSO transferred to wells of PCR Plates (Micro Amp Fast 96-well Reaction Plates, Applied Biosystems) to ensure matching final DMSO concentrations.
DSF was carried out with a StepOnePlus™ real time PCR system. Thermal denaturation of TDO2 was monitored with a ramp rate of 1 K/min. Protein melting curves were evaluated using the Thermal Shift Software v 1.3. (Thermo Fisher Scientific) to derive differences in midpoint melting-temperatures (derivative model). The thermal shift (DTm) is documented as the difference between the reference midpoint melting temperature of proteins (containing 500 µM AMT) in the presence of the ligand vehicle (DMSO) and in the presence of ligand.
Supplementary Table S2. Differential scanning fluorimetry data corresponding to supplementary figure S4. The experiments were carried out in quadruplicate, or in triplicate where single outlier values (highlighted in bold italics) were excluded from calculation of the melting curves. AMT was added at a concentration of 500 µM; […] and […] were added at a concentration of 25 µM.

[1] = 25 µM compound with 500 µM AMT, compared to 59.2 °C in the absence of inhibitor, read-out: increase of the melting temperature of apo-TDO2
[2] = apo-TDO2 + 25 µM compound, no AMT, shift vs apo, single replicates
[3] = apo-TDO2 + 25 µM compound, no AMT, shift vs apo, single replicates, read-out: Δ Tm Boltzmann
[4] = apo-TDO2 + 25 µM compound, no AMT, shift vs apo, single replicates, read-out: Δ Tm Derivative
[5] = apo-TDO2 + 25 µM compound, no AMT, single replicates

T2 sequence (P48775 19-406): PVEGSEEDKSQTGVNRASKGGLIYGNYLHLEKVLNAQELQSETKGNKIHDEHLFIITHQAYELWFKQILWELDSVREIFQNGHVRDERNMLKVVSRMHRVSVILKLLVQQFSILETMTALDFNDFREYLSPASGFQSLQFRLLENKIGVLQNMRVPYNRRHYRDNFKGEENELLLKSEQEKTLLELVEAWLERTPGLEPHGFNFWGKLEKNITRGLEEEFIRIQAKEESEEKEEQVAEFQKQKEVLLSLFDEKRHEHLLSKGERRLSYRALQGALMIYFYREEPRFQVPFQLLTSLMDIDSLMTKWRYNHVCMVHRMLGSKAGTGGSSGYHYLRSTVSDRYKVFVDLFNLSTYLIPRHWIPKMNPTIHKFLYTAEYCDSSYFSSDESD
T3 sequence (P48775 19-406): as above
T1 sequence (P14902 whole entry): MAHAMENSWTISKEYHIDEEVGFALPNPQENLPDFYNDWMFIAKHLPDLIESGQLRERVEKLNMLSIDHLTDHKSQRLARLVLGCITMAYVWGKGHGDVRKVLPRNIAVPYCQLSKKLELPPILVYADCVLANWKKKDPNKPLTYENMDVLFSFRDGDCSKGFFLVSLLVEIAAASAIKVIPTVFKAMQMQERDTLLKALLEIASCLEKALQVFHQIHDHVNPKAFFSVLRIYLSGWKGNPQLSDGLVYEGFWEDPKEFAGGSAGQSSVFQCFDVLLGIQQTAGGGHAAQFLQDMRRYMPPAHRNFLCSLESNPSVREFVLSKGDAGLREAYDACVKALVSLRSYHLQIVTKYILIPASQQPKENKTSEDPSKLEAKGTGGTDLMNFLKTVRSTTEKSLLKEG

Row | Structure (SMILES) | IC50 (IDO1) [µM] | Soret band (405 nm) intensity of holo-TDO2 absorption spectrum (holo-TDO2) | ΔTm at 25 µM (apo-TDO2; [1]) [°C] | Δ Tm Boltzmann (apo-TDO2; [2]) | Δ Tm Derivative (apo-TDO2; [2]) | ΔTm at 25 µM (apo-TDO2; [3]) [°C] | ΔTm at 25 µM (apo-TDO2; [4]) [°C] | Tm Boltzmann (apo-TDO2; [5]) | Tm Derivative (apo-TDO2; [5])
1 | CCOC(=O)c1c(OC)nc2n(c1=O)CCCC2N(C(=O)Nc1ccccc1C(C)C)[C@@H](C)c1ccccc1 (mixture of isomers) [Cpd-2, ethyl 9-(3-(2-isopropylphenyl)-1-((S)-1-phenylethyl)ureido)-2-methoxy-4-oxo-6,7,8,9-tetrahydro-4H-pyrido[1,2-a]pyrimidine-3-carboxylate] | > 10 | clear time-dependent reduction in the Soret band intensity; also recorded: reduction of the absorbance peak at 405 nm | 14.5 | 21.65 and 21.58 and 21.17 | 21.51 and 21.53 and 21.2 | 21.4 | 21.5 | 70.45 | 70.37 and 70.39 and 70.41 and 70.08
2 | CCCc1ccccc1NC(=O)N(C(C)c1ccccc1)C1CCCn2c1nc(OC)c(C(=O)OCC)c2=O (stereo not drawn) [Cpd-1, ethyl 9-(3-(2-propylphenyl)-1-(1-phenylethyl)ureido)-2-methoxy-4-oxo-6,7,8,9-tetrahydro-4H-pyrido[1,2-a]pyrimidine-3-carboxylate] | 5.7 | clear time-dependent reduction in the Soret band intensity; also recorded: reduction of the absorbance peak at 405 nm | 11.2 | 11.41 and 11.37 and 11.43 | 7.28 and 6.95 and 6.97 | 10.3 | 6.57 | 59.1 and 60.21 and 60.17 and 60.23 | 55.45 and 56.16 and 55.84 and 55.85
